From patent publication EP4461773A1, “FLUORESCENT HEMICRYPTOPHANES AND USES THEREOF” (Ecole Centrale de Marseille, priority 2023, dated 2024)
Read-outs that look alike come from different tables or passages of the source.

Tests used:
[1] = comparative data, stated as obtained according to the same procedure; footnotes cite New J. Chem. 2019 and GFP congress 2022; cited from earlier work
[2] = in water at pH 7, estimated; cited from earlier work
[3] = Fluorescence titration with chlordecone, binding constant calculated with Bindfit; conditions: compounds of the invention; DMSO+2% H2O, 25 °C, host 5.0 µM or 0.5 µM, chlordecone 5.0 mM additions
Method: A solution of each hemicryptophane (2.5 mL, 5.0 µM for hosts 9 and 5 and 0.5 µM for host 8) in DMSO+2% H2O was transferred into the quartz cuvette. Successive additions of a concentrated chlordecone solution (5.0 mM in the same solvent mixture) were performed. The final volume of the solution was almost unchanged (2.5 mL) since very small volumes of chlordecone solution were added. The solutions were mixed and incubated for 30 s before irradiation at their maximum of excitation (274 nm, 297 nm and 349 nm for hosts 9, 5, 8 respectively) at 25 °C. The corresponding emission values during titration were then recorded. Fluorescence emission spectra are reproduced at Figures 1A (5), 1B (8), and 1C (9) and the relative fluorescence intensities as a function of the [chlordecone]/[hemicryptophane] are reproduced at Figures 2A (5), 2B (8), and 2C (9).
Binding constant (Ka) were calculated using Bindfit program and results are reproduced at Table 1 below, further including comparative data obtained according to the same procedure.

Row | Compound | Binding constant (Ka) [1] | also measured
1 | COc1cc2c3cc1OCCOc1ccc(cc1)CNC(=O)CN1CC(=O)NCc4ccc(cc4)OCCOc4cc(c(cc4OC)C3)Cc3cc(OC)c(cc3C2)OCCOc2ccc(cc2)CNC(=O)C1 | [drawing 21] Ka = 126 L/mol ± 3.7% | 
2 | COc1cc2c3cc1OCCOc1ccc(cc1)CNCCN1CCNCc4ccc(cc4)OCCOc4cc(c(cc4OC)C3)Cc3cc(OC)c(cc3C2)OCCOc2ccc(cc2)CNCC1 | [drawing 22] Ka = 2.1 x 10^4 L/mol ± 3.4% | 
3 | COc1cc2c3cc1OCCOc1ccc4cc(ccc4c1)CNCCN1CCNCc4ccc5cc(ccc5c4)OCCOc4cc(c(cc4OC)C3)Cc3cc(OC)c(cc3C2)OCCOc2ccc3cc(ccc3c2)CNCC1 | [drawing 23] Ka = 6.4 x 10^3 L/mol ± 4.4% | 
4 | C(#Cc1cc2c3cc1OCCOc1ccc(cc1)CNCCN1CCNCc4ccc(cc4)OCCOc4cc(c(cc4C#Cc4ccccc4)C3)Cc3cc(C#Cc4ccccc4)c(cc3C2)OCCOc2ccc(cc2)CNCC1)c1ccccc1 | [drawing 25] Ka = 1.4 x 10^5 L/mol ± 12% | 
5 | COc1cc2c3cc1OCCOc1ccc(cc1-c1ccccc1)CNCCN1CCNCc4ccc(c(-c5ccccc5)c4)OCCOc4cc(c(cc4OC)C3)Cc3cc(OC)c(cc3C2)OCCOc2ccc(cc2-c2ccccc2)CNCC1 | [drawing 26] Ka = 1.9 x 10^4 L/mol ± 75% | 
6 | COc1cc2c3cc1OCCOc1ccc(cc1)CN(S(=O)(=O)c1cccc4c(N(C)C)cccc14)CCN1CCN(S(=O)(=O)c4cccc5c(N(C)C)cccc45)Cc4ccc(cc4)OCCOc4cc(c(cc4OC)C3)Cc3cc(OC)c(cc3C2)OCCOc2ccc(cc2)CN(S(=O)(=O)c2cccc3c(N(C)C)cccc23)CC1 | [drawing 27] Ka = 3.0 x 10^3 L/mol ± 6.9% | 
7 | O=C1C2(Cl)C3(Cl)C4(Cl)C(Cl)(Cl)C5(Cl)C3(Cl)C1(Cl)C5(Cl)C24Cl (centres unmarked) [Chlordecone] |  | solubility [2]: around 2 mg/L
8 | COc1cc2c3cc1OCCNCc1cc(-c4ccccc4)ccc1OCc1cc4cc(c1)COc1ccc(-c5ccccc5)cc1CNCCOc1cc(c(cc1OC)Cc1cc(c(OC)cc1C3)OCCNCc1cc(-c3ccccc3)ccc1OC4)C2 [compound 9] |  | Binding constant (Ka) [3]: [drawing 20] Ka = 4.6 x 10^5 L/mol ± 17%
